Measured values published in paper PMC8563958 (Cell Research, 2021).
Like-named read-outs stand apart in the source and are kept apart here.

Assays:
[1] = target: MC4R D122S, N-terminally HA-tagged (human) (UniProt P32245)
[2] = tested on: MC5R; settings: MC5R with V126; cited from earlier work
[3] = tested on: MC4R L133 to methionine; settings: cited from earlier work
[4] = tested on: MC1R; settings: cited from earlier work
[5] = tested on: MC4R; settings: cited from earlier work
From the text: (Fig. 1a). The binding mode of SHU9119 is generally like that of NDP-α-MSH. […] W6^3 is also clamped by H264^6.54 (TM6) and S188^EL2, and R5^2 connects TM3−TM4 and EL2 through hydrogen bonds with S188^EL2 and I185^4.61 (Fig. 2i; Supplementary information, Fig. S11 and Table S4).

[6] = target: T1, wild-type MC4R (WT) (Homo sapiens, UniProt P32245); type: cell-based; settings: set as 100 %, 1 µM ligand, HEK293, 40 min 37 °C, 1 mM IBMX, 4-8 experiments in triplicates
T1 construct: expressed in transfected cells; host or cells: HEK293 (transient, vector pcDps)

[7] = target: T2, MC4R H158A (Homo sapiens, UniProt P32245, H158A); type: cell-based
T2 construct: expressed in transfected cells; host or cells: HEK293 (transient, vector pcDps)

[8] = ref not given, cited from earlier work
From the text: In contrast to other M ...

[9] = tested on: MC4R; set-up: method as in earlier work; settings: ref 4 (AgRP); ref not given for MSH; cited from earlier work
[10] = target: wild-type MC4R, N-terminally HA-tagged (signalling construct) (human) (UniProt P32245)

NDP-α-MSH (peptide) gave an EC50 of cAMP accumulation (Gs signaling), transfected HEK293 cells [1] of 9 nM.
In the case of SHU9119, the “mode of action at MC5R” value [2] is given as “partial agonist”, the “mode of action at L133M mutant” value [3] is given as “reverses SHU9119 to an agonist” and the “mode of action at MC1R” value ([4]; MC1R with M128, 37 (ref 36)) is given as “partial agonist”. For the same compound, the “mode of action in MC1R–Gs complex” value ([4]; cryo-EM structure of active MC1R–Gs complex) was “acting as an agonist” and the “mode of action at MC4R” value ([5]; antagonism) was “antagonizes the MC4R”.
In the case of `CC(=O)N[C@@H](CCCNC(=N)N)C(=O)N[C@H]1CSSC[C@@H](C(N)=O)NC(=O)[C@H](Cc2c[nH]c3ccccc23)NC(=O)[C@H](CCCNC(=N)N)NC(=O)[C@@H](Cc2ccccc2)NC(=O)[C@H](Cc2c[nH]cn2)NC(=O)[C@@H](C)NC1=O` [setmelanotide], the “Emax cAMP” value [6] is given as 100 % of WT, the “maximum Gq/11 signaling” value [7] is given as 50% and the “Gs signaling-related adverse effects” value ([8]; in contrast to other MC4R agonists) is given as “does not cause common Gs signaling-related adverse effects, such as tachycardia or hypertension”. The adverse effects ([8]; rare, moderate) was “skin hyperpigmentation”.
In the case of melanotan II, the “mode of action at MC4R” value [5] is listed as “agonizes MC4R” and the “mode of action at MC4R” value ([5]; listed as melatonan II) is listed as “agonistic effects”.
In the case of “agouti-related peptide (SSRRCVRLHESCLGQQVPCCDPCATCYCRFFNAFCYCRKLGTAMNPCSRT; UniProt O00253 83-132, looked up) [AgRP]”, the effect on appetite [9] is given as “orexigenic effects” and the “mode of action at MC4R” value ([5]; reducing high levels of basal signaling activity) is given as “inverse agonist”.
In the case of β-MSH, the effect on appetite [9] is listed as “appetite-reducing effects”.
Work on setmelanotide (peptide) yielded a potency (EC50) of cAMP accumulation, transfected HEK293 cells [10] of 1.2 nM.
